The structures appear in SMILES notation.

Assay [1] has as its target T1, panel of 442 kinases (Homo sapiens, UniProt O75747).
T1 construct: purchased KINOMEscan
T1 sequence (O75747 1-1486): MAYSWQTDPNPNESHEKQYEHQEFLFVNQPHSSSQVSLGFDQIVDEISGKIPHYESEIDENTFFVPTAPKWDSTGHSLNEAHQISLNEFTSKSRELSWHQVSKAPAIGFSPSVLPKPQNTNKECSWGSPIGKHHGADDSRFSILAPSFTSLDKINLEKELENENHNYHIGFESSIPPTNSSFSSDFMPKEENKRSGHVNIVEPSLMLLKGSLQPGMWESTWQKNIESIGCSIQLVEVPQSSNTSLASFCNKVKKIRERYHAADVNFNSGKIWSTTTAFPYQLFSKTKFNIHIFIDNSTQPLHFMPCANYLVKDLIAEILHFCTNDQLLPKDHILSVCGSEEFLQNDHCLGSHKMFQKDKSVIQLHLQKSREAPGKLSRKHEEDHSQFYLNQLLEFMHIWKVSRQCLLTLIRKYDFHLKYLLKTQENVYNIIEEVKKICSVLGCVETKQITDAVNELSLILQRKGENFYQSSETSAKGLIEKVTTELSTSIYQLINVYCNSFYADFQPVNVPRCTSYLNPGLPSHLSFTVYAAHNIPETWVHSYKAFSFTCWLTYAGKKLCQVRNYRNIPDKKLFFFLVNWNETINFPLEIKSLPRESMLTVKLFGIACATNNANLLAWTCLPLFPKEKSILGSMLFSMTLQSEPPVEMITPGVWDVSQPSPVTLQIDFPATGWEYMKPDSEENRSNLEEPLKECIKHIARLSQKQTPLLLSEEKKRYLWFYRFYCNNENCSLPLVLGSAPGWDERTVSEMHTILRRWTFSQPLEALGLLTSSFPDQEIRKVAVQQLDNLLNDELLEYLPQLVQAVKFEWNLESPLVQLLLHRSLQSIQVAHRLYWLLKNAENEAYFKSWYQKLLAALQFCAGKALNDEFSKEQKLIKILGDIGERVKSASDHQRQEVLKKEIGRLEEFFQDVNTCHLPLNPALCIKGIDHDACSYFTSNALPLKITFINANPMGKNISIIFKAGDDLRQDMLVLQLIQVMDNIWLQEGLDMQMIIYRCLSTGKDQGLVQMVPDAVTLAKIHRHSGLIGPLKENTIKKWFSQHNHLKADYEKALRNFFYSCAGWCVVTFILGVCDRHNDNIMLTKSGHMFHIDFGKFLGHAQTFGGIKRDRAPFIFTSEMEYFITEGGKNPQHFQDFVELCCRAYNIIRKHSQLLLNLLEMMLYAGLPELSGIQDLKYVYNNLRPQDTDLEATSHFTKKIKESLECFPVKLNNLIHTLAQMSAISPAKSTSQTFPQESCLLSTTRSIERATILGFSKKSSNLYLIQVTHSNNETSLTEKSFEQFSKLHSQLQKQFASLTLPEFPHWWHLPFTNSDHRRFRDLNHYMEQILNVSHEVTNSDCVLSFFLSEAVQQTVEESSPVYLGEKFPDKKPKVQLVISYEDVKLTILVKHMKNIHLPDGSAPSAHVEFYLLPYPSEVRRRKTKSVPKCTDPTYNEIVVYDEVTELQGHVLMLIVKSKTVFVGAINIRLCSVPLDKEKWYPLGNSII
Format: binding. The following applies: Compound Concentration 10 µM. The source says:
(§1) We assessed the selectivity of members of this scaffold using the KINOMEscan methodology across a near comprehensive panel of 442 kinases [[18,27]].

Assay [2] deals with T2, panel of 442 kinases (Homo sapiens, UniProt Q9HAZ1).
T2 construct: purchased KINOMEscan
T2 sequence (Q9HAZ1 whole entry): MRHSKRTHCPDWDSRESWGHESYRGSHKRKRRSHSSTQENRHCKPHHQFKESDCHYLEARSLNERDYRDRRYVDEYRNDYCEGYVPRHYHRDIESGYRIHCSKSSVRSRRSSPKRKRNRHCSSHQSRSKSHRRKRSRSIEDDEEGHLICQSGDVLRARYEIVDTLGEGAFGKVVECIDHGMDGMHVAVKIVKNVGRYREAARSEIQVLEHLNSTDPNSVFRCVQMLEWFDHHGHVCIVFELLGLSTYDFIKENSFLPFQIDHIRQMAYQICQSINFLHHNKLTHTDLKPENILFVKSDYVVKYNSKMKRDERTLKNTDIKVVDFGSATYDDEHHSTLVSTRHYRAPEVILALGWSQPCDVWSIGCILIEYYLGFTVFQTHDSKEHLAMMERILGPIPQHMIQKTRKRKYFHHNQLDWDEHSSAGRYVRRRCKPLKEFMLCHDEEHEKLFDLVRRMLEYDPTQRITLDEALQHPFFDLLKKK
Format: binding. The following applies: Compound Concentration 10 µM.
From the text: as §1

As to `COc1cc(C(=O)N2CCC(N3CCN(C)CC3)CC2)ccc1Nc1ncc2c(n1)N(C1CCCC1)c1ccccc1C(=O)N2C` [Compound 25, 11-cyclopentyl-2-((2-methoxy-4-(4-(4-methylpiperazin-1-yl)piperidine-1-carbonyl)phenyl)amino)-5-methyl-5H-benzo[e]pyrimido[5,4-b][1,4]diazepin-6(11H)-one], the “KINOMEscan: PIK3C2G” value at panel of 442 kinases [1] worked out at 100. Also, the “KINOMEscan: CLK4” value at panel of 442 kinases [2] was 100.

Regarding `COc1cc(C(=O)N2CCC(N3CCN(C)CC3)CC2)ccc1Nc1ncc2c(n1)N1CCc3cccc(c31)C(=O)N2C` [Compound 24], the “KINOMEscan: CLK4” value at panel of 442 kinases [2] was determined as 11.

For `COc1cc(C(=O)N2CCC(N3CCN(C)CC3)CC2)ccc1Nc1ncc2c(n1)N(C)c1ccccc1C(=O)N2C` [15 (LRRK2-IN-1)], the “KINOMEscan: PIK3C2G” value on panel of 442 kinases [1] was 100. For the same compound, on panel of 442 kinases [2], the “KINOMEscan: CLK4” value is 54.

For the compound `CCOc1cc(C(=O)N2CCC(N3CCN(C)CC3)CC2)ccc1Nc1ncc2c(n1)N(C1CCCC1)c1ccccc1C(=O)N2C` [Compound 26], at panel of 442 kinases [1], the “KINOMEscan: PIK3C2G” value stood at 99. Moreover, the “KINOMEscan: CLK4” value on panel of 442 kinases [2] was 100.

The values are drawn from article PMC3914206.
